According to patent US9259418B2 (priority 2008, dated 2016):

Tests used:
MPTP treated mice [1] = test: Locomotion activity by Rota rod in MPTP treated mice; format: in vivo; details: day 5, MPTP alone
Method: Saline-injected mice are used as control (naïve mice). Mice were treated according to the following plan:
FIGS. 3A-B show the locomotion activity as tested by Rota rod latency (FIG. 3A) and Rota rod distance (FIG. 3B) on day 5 of the study (5 drug administrations).

MPTP treated mice [2] = test: Striatal dopamine levels in MPTP treated mice (HPLC); format: in vivo; details: for dose required to restore dopamine levels when administered alone: MPTP challenged mice, data not shown
Method: Striatum tissue samples were homogenized in ice in 500 ul homogenization buffer (0.1M perchloric acid, 0.02% EDTA and 1% ETOH) using OMNI Tip homogenizing kit of OMNI International (intermediate speed, 3×10 seconds with 5 seconds intervals). The homogenates were sonicated for 5 minutes then centrifuged at 15,000 RPM at 4° C. for 15 min. The supernatants were transferred into fresh tubes and Dopamine content was analyzed by HPLC.
Saline-injected mice are used as control (naïve mice).

PC12 cells [3] = test: In vitro neuroprotection assay, serum-free medium induced apoptosis, MTT test; format: cell-based, rat; details: serum starved PC12 cells, drugs alone or as DRA + MAO inhibitor combination
Method: (§1) For neuroprotection experiment cells were plated (1 or 0.5×10^5 Cells per well) on poly-L-lysine (Sigma) coated 96 wells tissue culture plates. Twenty four hours after plating the medium was exchanged with fresh growth medium with or without the tested drugs in the absence or presence of stressor. Cell cytotoxicity was induced by either serum starvation or Methyl-4phenylpyridium (MPP^+), 250 uM and 125 uM for PC12 and SK cells respectively. Drugs were added in different concentration alone and in combination, 30 minutes prior to the insult for a subsequent 48 or 72 hours. Neuronal cell injury was evaluated by a colorimetric assay for mitochondrial function using the MTT test (Sigma). The MTT test is based on the conversion of MTT to blue formasan crystals by viable cells. 5 mg/ml MIT reagent was added to each well (1:10 final dilution in each well). Cells were incubated for 1 hour at 37° C. and 5% CO2. Excess MIT was removed, and remaining formasan crystals were dissolved in 50 ul DMSO and were quantified in Elisa reader. The wavelength of the measurement of formasan product was 550 nm and the reference wavelength was 620 nm.
(§2) (a) PC12 and SK-N-SH Cells were incubated with 3 different concentrations of MPP+(125, 250, and 500 μM) or in growth medium lacking serum for 48 and 72 hours.
(§3) (b) Various drug combinations at various drug ratios as stated above were tested. The concentrations used were as follows: ropinirole, 400 μM, 200 μM, 100 μM, 50 μM; rasagiline, 400 μM, 200 μM, 100 μM, 50 μM, 10 μM; pramipexole, 400 μM, 200 μM, 100 μM, 50 μM; selegiline, 100, 50 μM, 10 μM, 1. Cell protection was detected by MTT.
(§4) The combinations used to treat serum-free medium induced apoptosis were ropinirole, 200 μM: rasagiline, 50 μM; ropinirole, 100 μM: rasagiline, 10 μM (FIG. 1A); pramipexole, 200 μM selegiline, 50 μM; pramipexole, 100 μM: selegiline, 10 μM (FIG. 1B); ropinirole, 200 μM: selegiline, 50 μM; and ropinirole, 100 μM: selegiline, 10 μM (FIG. 1C). […]

PC12 cells [4] = test: In vitro neuroprotection assay, MPP+ induced apoptosis, MTT test; format: cell-based, rat; details: MPP+ treated PC12 cells, drugs alone or as DRA + MAO inhibitor combination
Method: as §1, §2, §3, §4

Question: What does the source list for `CN1CC=C(c2ccccc2)CC1` [MPTP, N-methyl-4-phenyl-1,2,3,6-tetrahydropyridine]?
Answer: decrease in locomotion activity (MPTP treated mice [1]): about 30%; depletion in dopamine levels relative to naïve mice (MPTP treated mice [2]; MPTP treatment alone): over 70%

Question: For `CCCN[C@H]1CCc2nc(N)sc2C1` [pramipexole], which “dose required to restore dopamine levels when administered alone” value (MPTP treated mice [2]) is on record?
Answer: The value was “higher than 1 mg/kg”.

Question: With `C#CCN[C@@H]1CCc2ccccc21` [rasagiline] as the compound, how does the “neuroprotection effect / cell survival (% viable cells)” value (PC12 cells [3]) read?
Answer: Its value is “the effect on neuroprotection was minor”.

Question: And the “neuroprotection effect / cell survival (% viable cells)” value (PC12 cells [4])?
Answer: The value was “the effect on neuroprotection was minor”.

Question: And the “dose required to restore dopamine levels when administered alone” value (MPTP treated mice [2])?
Answer: Its value is “at least 0.5 mg/kg”.

Question: And the “increase in dopamine levels” value (MPTP treated mice [2]; high doses alone: 0.1 mg/kg rasagiline, 1 mg/kg pramipexole)?
Answer: The value was “significant but small increase”.

Question: And the “restoration of dopamine levels” value (MPTP treated mice [2]; low doses: rasagiline 0.05 mg/kg, pramipexole 0.5 mg/kg, alone or combined)?
Answer: Its value is “did not cause a significant restoration of dopamine levels”.

Question: What does the source list for `CCCN(CCC)CCc1cccc2c1CC(=O)N2` [ropinirole]?
Answer: neuroprotection effect / cell survival (% viable cells) (PC12 cells [3]): the effect on neuroprotection was minor; neuroprotection effect / cell survival (% viable cells) (PC12 cells [4]): the effect on neuroprotection was minor

Question: `C#CCN(C)[C@H](C)Cc1ccccc1` [selegiline] was tested. Which “neuroprotection effect / cell survival (% viable cells)” value (PC12 cells [3]) did it give?
Answer: The value was “the effect on neuroprotection was minor”.

Question: What about the “neuroprotection effect / cell survival (% viable cells)” value (PC12 cells [4]) of the same compound?
Answer: The value was “the effect on neuroprotection was minor”.
